Experimental data taken from patent US20050279350A1, “Methods and apparatus for relieving headaches, rhinitis and other common ailments” (priority 1999, published 2005).
Marks after values point to notes of the source that are not given here.

What was measured:
human subjects = assay: Effective and maximum tolerable nasal and oral carbon dioxide flow rates measured with laboratory apparatus; assay type: in vivo
From the text: The test device was a hand-held, multi-dose, disposable, dispenser that was approximately 3 to 4 inches long and 6/8 to ⅞ inches in diameter constructed as described above. The device consisted of a plastic twist-top flow regulator mounted on top of a pressurized steel cartridge containing liquid carbon dioxide. The tip of the flow regulator has a nosepiece that is the optimal size and configuration to place against and seal off a nostril for administration of the gas. In a number of subjects, the effective nasal and oral carbon dioxide flow rates, and maximum tolerable nasal and oral flow rates, were measured using a laboratory apparatus. This apparatus consisted of a flow regulator connected via tubing to a flow meter and a large tank of carbon dioxide. These flow data were used, together with the number of seconds gas was administered during therapy, to calculate the estimated dose of gas in milliliters.
Initially, the effective nasal and oral, and maximum tolerable nasal and oral carbon dioxide flow rates were measured in seven subjects using a laboratory apparatus. The flow rate selected that is effective or the maximum tolerable rate varies with the individual. At low flow rates, the presence of the carbon dioxide produces a “tingling” sensation similar to that produced during drinking of carbonated beverages that inadvertently enter the nasal passages e.g., “bubbles up the nose”. This is the effective rate and the tingling is a welcome sensation because it usually coincides with immediate relief of symptoms. Above a certain subjectively determined flow rate the sensation becomes unpleasant, which may be described as a “stinging” or “burning” sensation. At a still higher flow rate (maximum tolerable rate), the stinging sensation becomes intolerable and subjects remove the device from their nostril. Also, subjects are more sensitive to the first does of a series for one attack; subsequent doses give less or no sensation. […] The typical effective rate nasally was 1 to 5 ml/sec and 5 to 10 ml/sec orally.

[1] = test system: mucous membrane of the nose, nasal passages, and mouth; assay: Effective and tolerable carbon dioxide flows found by the inventors (description); assay type: in vivo, human
From the text: Furthermore, chronic inflammation of the mucosa and associated distress, caused by extended exposure to allergens and/or antigens, may be relieved within a few minutes by repeating such carbon dioxide applications. A possible mechanism of action of the above described local carbon dioxide treatment is the following. Creating a high concentration of carbon dioxide (hypercapnia) by infusing it into the nasal passages causes a very fast lowering of the pH (making more acidic) of the mucous membranes depressing the neuronal activity (inhibiting inflammatory mediator release such as histamine) of the nerves that supply the nasal mucous membranes and connect directly to the brainstem. Asthma is known to be a comorbid disease to allergic rhinitis. […] In addition, it is known that oxygenation is improved in patients with status asthmaticus, chronic obstructive pulmonary disease, and bronchiolitis by inhalation of helium. Also, inhaled nitric oxide improves the oxygenation and ventilation of most children with acute, hypoxic respiratory failure. For this reason, these respiratory ailments can be reduced or relieved by administering the above-described treatment using carbon dioxide or helium or nitric oxide. Furthermore, headaches (e.g., migraine headaches, tension-type headaches, cluster headaches, jaw pain, facial pain) are thought to be due to triggers creating a hyperexcitability state of nerves releasing inflammatory mediators such as histamine and serotonin. For this reason, headaches can be reduced or relieved by administering the above-described carbon dioxide treatment. Epilepsy, also a nervous hyperexcitability state, is known to be a comorbid disease to headaches and antiepileptic medications are used for migraine prevention. For this reason, epilepsy can be reduced or relieved by administering the above-described carbon dioxide treatment. […] Furthermore, other gases such as nitric oxide, oxygen, helium, and others may be administered similarly as therapeutic gases via the convenient hand-held easily controlled dispenser.
Furthermore, it is desirable that the user be able to conveniently but precisely and controllably select a rate and duration of carbon dioxide flow that lies between the lower limit of effectiveness and the upper limit of tolerance. […] Flows as low as 1 cc/sec for 1-2 seconds into the nose are effective for suppression of onset of acute allergic symptoms, whereas flows of 4-5 cc/sec for 5-10 seconds are typically selected for optimum relief from a mild chronic allergy attack. For severely inflamed mucosa and/or for injection into the mouth, flows as high as 10 cc/sec or higher for as long as 15 seconds or longer often are selected for optimum relief. For the treatment of tension and migraine headaches, the flow durations can be substantially longer, as generally set forth in the Dosage Guideline (Table I) above.
At low flow rates, the presence of the carbon dioxide produces a “tingling” sensation similar to that produced during drinking of carbonated beverages that inadvertently enter the nasal passages e.g., “bubbles up the nose”. This is the effective rate and the tingling is a welcome sensation because it usually coincides with immediate relief of symptoms. Above a certain subjectively determined flow rate the sensation becomes unpleasant, which may be described as a “stinging” or “burning” sensation. At a still higher flow rate (maximum tolerable rate), the stinging sensation becomes intolerable and subjects remove the device from their nostril. […] More typically, an injection rate of up to 10 cc/sec can be tolerated for 5 seconds or more into the nose by most users and into the mouth by almost all users. It must be noted, however, that the tolerance level depends strongly on the sequential phase of the application and on the degree of inflammation and/or pain at that phase. […]

[2] = subject five, experience w/device 0
[3] = subject four, experience w/device 0
[4] = subject one, experience w/device >1000
[5] = subject six, experience w/device 0
[6] = subject three, experience w/device >1000
[7] = subject two, experience w/device 0
[8] = subject, experience w/device >10

SMILES: O=C=O [carbon dioxide]
- tolerance of high flow rates, oral versus nasal (human subjects; seven subjects): better tolerated orally than nasally
- Effective Nasal Rate (human subjects; [2]): 1 to 2 mL/s
- Effective Oral Rate (human subjects; [2]): 5 to 10 mL/s
- Max Tolerable Nasal Rate (human subjects; [2]): 3 mL/s
- Max Tolerable Oral Rate (human subjects; [2]): >10* ml/sec
- Effective Nasal Rate (human subjects; [3]): 2 mL/s
- Effective Oral Rate (human subjects; [3]): 2 mL/s
- Max Tolerable Nasal Rate (human subjects; [3]): 4 mL/s
- Max Tolerable Oral Rate (human subjects; [3]): >10* ml/sec
- Effective Nasal Rate (human subjects; [4]): 4 to 5 mL/s
- Effective Oral Rate (human subjects; [4]): 5 to 10 mL/s
- Max Tolerable Nasal Rate (human subjects; [4]): 10 mL/s
- Max Tolerable Oral Rate (human subjects; [4]): >10* ml/sec
- Effective Nasal Rate (human subjects; [5]): <1 mL/s
- Effective Oral Rate (human subjects; [5]): 5 to 10 mL/s
- Max Tolerable Nasal Rate (human subjects; [5]): 2 mL/s
- Max Tolerable Oral Rate (human subjects; [5]): >10* ml/sec
- Effective Nasal Rate (human subjects; [6]): 4 to 5 mL/s
- Effective Oral Rate (human subjects; [6]): 5 to 10 mL/s
- Max Tolerable Nasal Rate (human subjects; [6]): 10 mL/s
- Max Tolerable Oral Rate (human subjects; [6]): >10* ml/sec
- Effective Nasal Rate (human subjects; [7]): <1 mL/s
- Effective Oral Rate (human subjects; [7]): >10* ml/sec
- Max Tolerable Nasal Rate (human subjects; [7]): <1 mL/s
- Max Tolerable Oral Rate (human subjects; [7]): >10* ml/sec
- Effective Nasal Rate (human subjects; [8]): 4 to 5 mL/s
- Effective Oral Rate (human subjects; [8]): 5 to 10 mL/s
- Max Tolerable Nasal Rate (human subjects; [8]): 10 mL/s
- Max Tolerable Oral Rate (human subjects; [8]): >10* ml/sec
- tolerance level ([1]; a few individuals, a second or less of injection into the nose): 1-2 cc/sec
- suppression of onset of acute irritation of the mucosa ([1]; bathing mucous membrane of nose, nasal passages and mouth with gaseous carbon dioxide): times as short as one second can suppress the onset of acute irritation of the mucosa
- effective flow ([1]; for 1-2 seconds into the nose, suppression of onset of acute allergic symptoms): ≥ 1 cc/sec
- flow typically selected for optimum relief ([1]; for 5-10 seconds, mild chronic allergy attack): 4-5 cc/sec
- tolerated injection rate ([1]; for 5 seconds or more, into the nose by most users and into the mouth by almost all users): up to 10 cc/sec
- flow often selected for optimum relief ([1]; severely inflamed mucosa and/or injection into the mouth, for as long as 15 seconds or longer): ≥ 10 cc/sec
- tolerance level ([1]; typically, at the onset of the first carbon dioxide injection): < 3 cc/sec
